# Laboratory results taken from US20150337013A1, “NOVEL ANTIBACTERIAL AGENTS FOR THE TREATMENT OF GRAM POSITIVE INFECTIONS” (priority 2008, published 2015).
# Several values for one entry are separate records, joined by “and”; a condition that tells them apart may be missing. Equal values may be shown once. Read-outs that look alike come from different tables or passages of the source.
# Assays:
# [1] = test system: Enterococcus faecalis EFS.201 (ATCC 49452); assay type: cell-based
# Outline: (§1)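 MIC in μg/mL, taken as the lowest compound concentration producing no visible turbidity after 18-20 hours at 37° C with shaking at 200 rpm. Organisms were grown in calcium-supplemented (50 mg/L) Mueller Hinton broth at 5×10^5 bacteria per well.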
# [2] = test system: Enterococcus faecalis EFS.312, Daptomycin resistant mutant (EFA); assay type: cell-based; conditions: MHBc with 50 mg/L calcium, 18-20 hours at 37° C.
# Outline: as §1
# [3] = test system: Enterococcus faecium EFM.14 (ATCC 6569); assay type: cell-based
# Outline: as §1
# [4] = test system: Enterococcus faecium EFM.384, Daptomycin resistant mutant (14-A); assay type: cell-based; conditions: MHBc with 50 mg/L calcium, 18-20 hours at 37° C.
# Outline: as §1
# [5] = test system: Staphylococcus aureus SAU.278, Daptomycin resistant mutant (D10); assay type: cell-based; conditions: MHBc with 50 mg/L calcium, 18-20 hours at 37° C.
# Outline: as §1
# [6] = test system: Staphylococcus aureus SAU.399 (ATCC 43300), Methicillin and Oxacillin Resistant; assay type: cell-based
# Outline: as §1
# [7] = test system: Staphylococcus aureus SAU.42 (ATCC 29213); assay type: cell-based
# Outline: as §1
# [8] = MHBc with 50 mg/L calcium, 18-20 hours at 37° C.
Compound,Efs201 MIC ([1]; ATCC 49452) [µg/mL],Efs312 MIC [2],Efm14 MIC ([3]; ATCC 6569) [µg/mL],Efm384 MIC [4] [µg/mL],Sa278 MIC [5] [µg/mL],Sa399 MIC ([6]; ATCC 43300) [µg/mL],Sa42 MIC ([7]; ATCC 29213) [µg/mL],C. diff MIC90 (Clostridium difficile) [µg/mL],"Efs201 MIC [1, 8] [µg/mL]","Efm14 MIC [3, 8]","Sa399 MIC [6, 8] [µg/mL]","Sa42 MIC [7, 8] [µg/mL]"
CCc1ccc(CCC(=O)N[C@@H](Cc2c[nH]c3ccccc23)C(=O)N[C@H](CC(N)=O)C(=O)N[C@@H](CC(=O)O)C(=O)N[C@@H]2C(=O)NCC(=O)N[C@@H](CCCN)C(=O)N[C@@H](CC(=O)O)C(=O)N[C@H](C)C(=O)N[C@@H](CC(=O)O)C(=O)NCC(=O)N[C@H](CO)C(=O)N[C@@H]([C@H](C)CC(=O)O)C(=O)N[C@@H](CC(=O)c3ccccc3N)C(=O)O[C@@H]2C)cc1 [Compound 29],>32,>32 µg/mL,>32,>32,>32,8,8,16,,,,
CCCCCCOc1ccc(C(=O)N[C@@H](Cc2c[nH]c3ccccc23)C(=O)N[C@H](CC(N)=O)C(=O)N[C@@H](CC(=O)O)C(=O)N[C@@H]2C(=O)NCC(=O)N[C@@H](CCCN)C(=O)N[C@@H](CC(=O)O)C(=O)N[C@H](C)C(=O)N[C@@H](CC(=O)O)C(=O)NCC(=O)N[C@H](CO)C(=O)N[C@@H]([C@H](C)CC(=O)O)C(=O)N[C@@H](CC(=O)c3ccccc3N)C(=O)O[C@@H]2C)cc1 [Compound 35],,>32 µg/mL,,32,4.00,,,2,1.0,2 µg/mL,0.5,0.5
CCCCCCCCOc1ccc(C(=O)N[C@@H](Cc2c[nH]c3ccccc23)C(=O)N[C@H](CC(N)=O)C(=O)N[C@@H](CC(=O)O)C(=O)N[C@@H]2C(=O)NCC(=O)N[C@@H](CCCN)C(=O)N[C@@H](CC(=O)O)C(=O)N[C@H](C)C(=O)N[C@@H](CC(=O)O)C(=O)NCC(=O)N[C@H](CO)C(=O)N[C@@H]([C@H](C)CC(=O)O)C(=O)N[C@@H](CC(=O)c3ccccc3N)C(=O)O[C@@H]2C)cc1 [Compound 36],,4 µg/mL,,4,1.00,,,0.5,0.5,0.5 µg/mL,0.25,0.25
CCCCCCCCCCCCOc1ccc(C(=O)N[C@@H](Cc2c[nH]c3ccccc23)C(=O)N[C@H](CC(N)=O)C(=O)N[C@@H](CC(=O)O)C(=O)N[C@@H]2C(=O)NCC(=O)N[C@@H](CCCN)C(=O)N[C@@H](CC(=O)O)C(=O)N[C@H](C)C(=O)N[C@@H](CC(=O)O)C(=O)NCC(=O)N[C@H](CO)C(=O)N[C@@H]([C@H](C)CC(=O)O)C(=O)N[C@@H](CC(=O)c3ccccc3N)C(=O)O[C@@H]2C)cc1 [Compound 39],,2 µg/mL,,2,2.00,,,16,0.5,2.0 µg/mL,0.500,1.00
CCCCCCCCCCCCCCCOc1ccc(C(=O)N[C@@H](Cc2c[nH]c3ccccc23)C(=O)N[C@H](CC(N)=O)C(=O)N[C@@H](CC(=O)O)C(=O)N[C@@H]2C(=O)NCC(=O)N[C@@H](CCCN)C(=O)N[C@@H](CC(=O)O)C(=O)N[C@H](C)C(=O)N[C@@H](CC(=O)O)C(=O)NCC(=O)N[C@H](CO)C(=O)N[C@@H]([C@H](C)CC(=O)O)C(=O)N[C@@H](CC(=O)c3ccccc3N)C(=O)O[C@@H]2C)cc1 [Compound 40],,8 µg/mL,,32,16.00,,,32,4.0,32.0 µg/mL,4.000,4.00
CCCCCOc1ccc(/C=C/C(=O)N[C@@H](Cc2c[nH]c3ccccc23)C(=O)N[C@H](CC(N)=O)C(=O)N[C@@H](CC(=O)O)C(=O)N[C@@H]2C(=O)NCC(=O)N[C@@H](CCCN)C(=O)N[C@@H](CC(=O)O)C(=O)N[C@H](C)C(=O)N[C@@H](CC(=O)O)C(=O)NCC(=O)N[C@H](CO)C(=O)N[C@@H]([C@H](C)CC(=O)O)C(=O)N[C@@H](CC(=O)c3ccccc3N)C(=O)O[C@@H]2C)cc1 [Compound 41],,>32 µg/mL,,>32,2,,,4,4,8 µg/mL,2,4
"CCCCCCCc1csc(C(=O)N[C@@H](Cc2c[nH]c3ccccc23)C(=O)N[C@H](CC(N)=O)C(=O)N[C@@H](CC(=O)O)C(=O)N[C@@H]2C(=O)NCC(=O)N[C@@H](CCCN)C(=O)N[C@@H](CC(=O)O)C(=O)N[C@H](C)C(=O)N[C@@H](CC(=O)O)C(=O)NCC(=O)N[C@H](CO)C(=O)N[C@@H]([C@H](C)CC(=O)O)C(=O)N[C@@H](CC(=O)c3ccccc3N)C(=O)O[C@@H]2C)c1 [Compound 43, N-(4-heptylthiophene-2-carbonyl)-L-tryptophyl-D-asparaginyl-L-α-aspartyl-L-threonylglycyl-L-ornithyl-L-α-aspartyl-D-alanyl-L-α-aspartylglycyl-D-seryl-(3R)-3-methyl-L-α-glutamyl-(αS)-α,2-diamino-γ-oxobenzenebutanoic acid (13→4)-lactone]",1,32 µg/mL,1,16,1,0.5,0.125,2,,,,
CCCCc1ccc(CC(=O)N[C@@H](Cc2c[nH]c3ccccc23)C(=O)N[C@H](CC(N)=O)C(=O)N[C@@H](CC(=O)O)C(=O)N[C@@H]2C(=O)NCC(=O)N[C@@H](CCCN)C(=O)N[C@@H](CC(=O)O)C(=O)N[C@H](C)C(=O)N[C@@H](CC(=O)O)C(=O)NCC(=O)N[C@H](CO)C(=O)N[C@@H]([C@H](C)CC(=O)O)C(=O)N[C@@H](CC(=O)c3ccccc3N)C(=O)O[C@@H]2C)cc1 [Compound 44],8,>32 µg/mL,16,>32,4,4,4,8.00,,,,
CCCCCCCc1ccc(NC(=O)N[C@@H](Cc2c[nH]c3ccccc23)C(=O)N[C@H](CC(N)=O)C(=O)N[C@@H](CC(=O)O)C(=O)N[C@@H]2C(=O)NCC(=O)N[C@@H](CCCN)C(=O)N[C@@H](CC(=O)O)C(=O)N[C@H](C)C(=O)N[C@@H](CC(=O)O)C(=O)NCC(=O)N[C@H](CO)C(=O)N[C@@H]([C@H](C)CC(=O)O)C(=O)N[C@@H](CC(=O)c3ccccc3N)C(=O)O[C@@H]2C)cc1 [Compound 51],0.25,8 µg/mL,0.5,4,1,0.125,0.125,0.5,,,,
"C[C@H](CC(=O)O)[C@@H]1NC(=O)[C@@H](CO)NC(=O)CNC(=O)[C@H](CC(=O)O)NC(=O)[C@@H](C)NC(=O)[C@H](CC(=O)O)NC(=O)[C@H](CCCN)NC(=O)CNC(=O)[C@@H](NC(=O)[C@H](CC(=O)O)NC(=O)[C@@H](CC(N)=O)NC(=O)[C@H](Cc2c[nH]c3ccccc23)NC(=O)c2ccc(-c3ccc(-c4ccccc4)cc3)s2)[C@@H](C)OC(=O)[C@H](CC(=O)c2ccccc2N)NC1=O [Compound 52, N-[5-(biphenyl-4-yl)thiophene-2-carbonyl]-L-tryptophyl-D-asparaginyl-L-α-aspartyl-L-threonylglycyl-L-ornithyl-L-α-aspartyl-D-alanyl-L-α-aspartylglycyl-D-seryl-(3R)-3-methyl-L-α-glutamyl-(αS)-α,2-diamino-γ-oxobenzenebutanoic acid (13→4)-lactone]",,8 µg/mL and 16 µg/mL,,4,0.5,,,2,0.5,1 µg/mL and 0.5 µg/mL,0.25,0.25
